Measurements taken from patent publication US20180000085A1, “USE OF PICOLINAMIDE COMPOUNDS WITH FUNGICIDAL ACTIVITY” (DOW AGROSCIENCES LLC, priority 2014, published 2018).

Legend:
Zymoseptoria tritici = test: Leaf blotch of wheat (SEPTTR) disease control on wheat seedlings; type: in vivo; design: key to SEPTTR 1DP, HV activity at 100 ppm (% control rating) / SEPTTR 3DC, HV activity at 100 ppm (% control rating) / SEPTTR disease control, 1DP / SEPTTR disease control, 3DC / SEPTTR 1DP disease control rating, HV activity / SEPTTR 3DC disease control rating, HV activity / SEPTTR 3DC, LV activity at 125.1 g/H (% Control rating) / SEPTTR 1DP, LV activity at 125.1 g/H (% Control rating) / SEPTTR 1DP disease control rating, LV activity at 125.1 g/H / SEPTTR 3DC disease control rating, LV activity at 125.1 g/H / SEPTTR 3DC disease control rating, HV activity at 100 ppm / SEPTTR 1DP disease control rating, HV activity at 100 ppm / HV activity at 100 ppm SEPTTR 3DC (disease control rating) / HV activity at 100 ppm SEPTTR 1DP (disease control rating) / LV activity at 125.1 g/H SEPTTR 1DP (disease control rating) / LV activity at 125.1 g/H SEPTTR 3DC (disease control rating): A: > 80; B: ≤ 80; C: Not Tested; D: No Activity Observed in the Reported Assay; conditions: for SEPTTR 1DP disease control rating, LV activity at 125.1 g/H / SEPTTR 3DC disease control rating, LV activity at 125.1 g/H / LV activity at 125.1 g/H SEPTTR 1DP (disease control rating) / LV activity at 125.1 g/H SEPTTR 3DC (disease control rating) / SEPTTR 1DP, LV activity at 125.1 g/H (% Control rating) / SEPTTR 3DC, LV activity at 125.1 g/H (% Control rating): low volume application; for SEPTTR 1DP disease control rating, LV activity at 125.1 g/H: 1 day protectant; for SEPTTR 3DC disease control rating, LV activity at 125.1 g/H: 3 day curative; for SEPTTR 1DP disease control rating, HV activity / SEPTTR 3DC disease control rating, HV activity: HV application at 100 ppm
Puccinia triticina = test: Wheat brown rust (PUCCRT) disease control on wheat seedlings; type: in vivo; design: key to PUCCRT 3DC, HV activity at 100 ppm (% control rating) / PUCCRT disease control, 3DC / PUCCRT 1DP disease control rating, HV activity / PUCCRT 3DC disease control rating, HV activity / PUCCRT 3DC, LV activity at 125.1 g/H (% Control rating) / PUCCRT 1DP, LV activity at 125.1 g/H (% Control rating) / PUCCRT 3DC disease control rating, LV activity at 125.1 g/H / PUCCRT 1DP disease control rating, LV activity at 125.1 g/H / PUCCRT 3DC disease control rating, HV activity at 100 ppm / PUCCRT 1DP disease control rating, HV activity at 100 ppm / HV activity at 100 ppm PUCCRT 3DC (disease control rating) / LV activity at 125.1 g/H PUCCRT 1DP (disease control rating) / LV activity at 125.1 g/H PUCCRT 3DC (disease control rating): A: > 80; B: ≤ 80; C: Not Tested; D: No Activity Observed in the Reported Assay; conditions: for PUCCRT 1DP disease control rating, LV activity at 125.1 g/H / PUCCRT 3DC disease control rating, LV activity at 125.1 g/H / LV activity at 125.1 g/H PUCCRT 1DP (disease control rating) / LV activity at 125.1 g/H PUCCRT 3DC (disease control rating) / PUCCRT 1DP, LV activity at 125.1 g/H (% Control rating) / PUCCRT 3DC, LV activity at 125.1 g/H (% Control rating): low volume application; for PUCCRT 1DP disease control rating, LV activity at 125.1 g/H: 1 day protectant; for PUCCRT 3DC disease control rating, LV activity at 125.1 g/H: 3 day curative; for PUCCRT 1DP disease control rating, HV activity / PUCCRT 3DC disease control rating, HV activity: HV application at 100 ppm
[1] = 1 Day Protectant, wheat leaf blotch
[2] = 3 Day Curative, wheat leaf blotch
[3] = 1 Day Protectant, wheat brown rust
[4] = 3 Day Curative, wheat brown rust

Structure (SMILES)	SEPTTR 1DP disease control rating, HV activity (Zymoseptoria tritici; [1])	SEPTTR 3DC disease control rating, HV activity (Zymoseptoria tritici; [2])	PUCCRT 1DP disease control rating, HV activity (Puccinia triticina; [3])	PUCCRT 3DC disease control rating, HV activity (Puccinia triticina; [4])	LV activity at 125.1 g/H SEPTTR 1DP (disease control rating) (Zymoseptoria tritici; [1])	LV activity at 125.1 g/H SEPTTR 3DC (disease control rating) (Zymoseptoria tritici; [2])	LV activity at 125.1 g/H PUCCRT 1DP (disease control rating) (Puccinia triticina; [3])	LV activity at 125.1 g/H PUCCRT 3DC (disease control rating) (Puccinia triticina; [4])	other results
COc1ccnc(C(=O)NC(C)C(=O)OC(C)C(Oc2ccccc2)C2CCCCC2)c1OCOC(C)=O (stereo not shown) [Cmpd 907]	–	–	–	–	–	–	–	–	SEPTTR 1DP disease control rating, LV activity at 125.1 g/H (Zymoseptoria tritici): B (≤ 80); SEPTTR 3DC disease control rating, LV activity at 125.1 g/H (Zymoseptoria tritici): B (≤ 80); PUCCRT 1DP disease control rating, LV activity at 125.1 g/H (Puccinia triticina): A (> 80); PUCCRT 3DC disease control rating, LV activity at 125.1 g/H (Puccinia triticina): B (≤ 80)
COc1ccnc(C(=O)N[C@@H](C)C(=O)O[C@@H](C)COc2ccccc2)c1O [Cmpd 335]	B (≤ 80)	D	A (> 80)	A (> 80)	–	–	–	–	–
CCC[C@@H](Oc1ccc(C)cc1Cl)[C@H](C)OC(=O)[C@H](C)NC(=O)c1nccc(OC)c1OC(C)=O [Cmpd 1068]	–	–	–	–	B (≤ 80)	B (≤ 80)	A (> 80)	B (≤ 80)	–
COc1ccnc(C(=O)N[C@@H](C)C(=O)O[C@@H](C)[C@@H](Cc2ccccc2)Oc2ccccc2)c1O [Cmpd 345]	D	B (≤ 80)	A (> 80)	A (> 80)	–	–	–	–	–
CCCOC(CC)C(Oc1ccccc1)C(C)OC(=O)C(C)NC(=O)c1nccc(OC)c1OC(C)=O (stereo not shown) [Cmpd 450]	A (> 80)	A (> 80)	A (> 80)	A (> 80)	–	–	–	–	SEPTTR 1DP disease control rating, LV activity (Zymoseptoria tritici; Low volume application at 125.1 g/H, 1 Day Protectant, wheat leaf blotch): B (≤ 80); SEPTTR 3DC disease control rating, LV activity (Zymoseptoria tritici; Low volume application at 125.1 g/H, 3 Day Curative, wheat leaf blotch): B (≤ 80); PUCCRT 1DP disease control rating, LV activity (Puccinia triticina; Low volume application at 125.1 g/H, 1 Day Protectant, wheat brown rust): A (> 80); PUCCRT 3DC disease control rating, LV activity (Puccinia triticina; Low volume application at 125.1 g/H, 3 Day Curative, wheat brown rust): A (> 80)
CCCC(OC(=O)C(C)NC(=O)c1nccc(OC)c1OCOC(C)=O)C(Oc1ccccc1)C(C)C (stereo not shown) [Cmpd 1093]	–	–	–	–	D	D	D	D	–
COc1cccc(O[C@@H]([C@H](C)OC(=O)[C@H](C)NC(=O)c2nccc(OC)c2OC(C)=O)C(C)(C)C)c1 [Cmpd 1062]	–	–	–	–	B (≤ 80)	B (≤ 80)	A (> 80)	A (> 80)	–
CCC(CC)[C@H](Oc1cc(F)ccc1F)[C@H](C)OC(=O)[C@H](C)NC(=O)c1nccc(OC)c1OCOC(C)=O [Cmpd 671]	–	–	–	–	–	–	–	–	SEPTTR 1DP disease control rating, LV activity at 125.1 g/H (Zymoseptoria tritici): D; SEPTTR 3DC disease control rating, LV activity at 125.1 g/H (Zymoseptoria tritici): B (≤ 80); PUCCRT 1DP disease control rating, LV activity at 125.1 g/H (Puccinia triticina): A (> 80); PUCCRT 3DC disease control rating, LV activity at 125.1 g/H (Puccinia triticina): A (> 80)
CCCOC[C@@H](Oc1ccccc1)[C@H](C)OC(=O)[C@H](CC)NC(=O)c1nccc(OC)c1OC(C)=O [Cmpd 484]	–	–	–	–	–	–	–	–	SEPTTR 1DP, LV activity at 125.1 g/H (% Control rating) (Zymoseptoria tritici; 1 Day Protectant): B (≤ 80); SEPTTR 3DC, LV activity at 125.1 g/H (% Control rating) (Zymoseptoria tritici; 3 Day Curative): D; PUCCRT 1DP, LV activity at 125.1 g/H (% Control rating) (Puccinia triticina; 1 Day Protectant): B (≤ 80); PUCCRT 3DC, LV activity at 125.1 g/H (% Control rating) (Puccinia triticina; 3 Day Curative): A (> 80)
CC[C@H](NC(=O)c1nccc(OC)c1OC(C)=O)C(=O)O[C@@H](C)[C@@H](COc1ccccc1)Oc1ccccc1 [Cmpd 489]	–	–	–	–	–	–	–	–	SEPTTR 1DP, LV activity at 125.1 g/H (% Control rating) (Zymoseptoria tritici; 1 Day Protectant): A (> 80); SEPTTR 3DC, LV activity at 125.1 g/H (% Control rating) (Zymoseptoria tritici; 3 Day Curative): A (> 80); PUCCRT 1DP, LV activity at 125.1 g/H (% Control rating) (Puccinia triticina; 1 Day Protectant): A (> 80); PUCCRT 3DC, LV activity at 125.1 g/H (% Control rating) (Puccinia triticina; 3 Day Curative): A (> 80)
COc1ccnc(C(=O)N[C@@H](C)C(=O)O[C@@H](C)[C@@H](CC(C)C)OCC2CC2)c1OC(C)=O [Cmpd 1112]	–	–	–	–	D	D	B (≤ 80)	A (> 80)	–
CCC(Cc1ccccc1)C(OCC(C)C)C(C)OC(=O)CNC(=O)c1nccc(OC)c1OCOC(C)=O (stereo not shown) [Cmpd 445]	B (≤ 80)	D	A (> 80)	A (> 80)	–	–	–	–	–
